According to patent publication US10413541B2, “Oxabicycloheptanes and oxabicycloheptenes for the treatment of depressive and stress disorders” (LIXTE BIOTECHNOLOGY, INC., priority 2015, dated 2019):

Assays:
[1] = system: LHb neurons; experiment: Current-clamp excitability (evoked action potentials, input-output curve) of LHb neurons in slices; format: cell-based, mice; details: LB100 0.1 μM in the bath
Protocol: (§1) Animals were anesthetized with Ketamine/Xylazine (50 mg/10 mg Kg-1 i.p.; Sigma-Aldrich, France). The preparation of LHb-containing brain slices was done in bubbled ice-cold 95% O2/5% CO2-equilibrated solution containing (in mM): cholineCl 110; glucose 25; NaHCO3 25; MgCl2 7; ascorbic acid 11.6; Na+-pyruvate 3.1; KCl 2.5; NaH2PO4 1.25; CaCl2 0.5. Sagittal slices (250 μm) were stored at room temperature in 95% O2/5% CO2-equilibrated artificial cerebrospinal fluid (ACSF) containing (in mM): NaCl 124; NaHCO3 26.2; glucose 11; KCl 2.5; CaCl2 2.5; MgCl2 1.3; NaH2PO4 1. Recordings (flow rate of 2.5 ml/min) were made under an Olympus-BX51 microscope (Olympus, France) at 32° C. Currents were amplified, filtered at 5 kHz and digitized at 20 kHz. Access resistance was monitored by a step of −4 mV (0.1 Hz). Experiments were discarded if the access resistance increased more than 20%.
The internal solution to measure GABAB-GIRK currents and neuronal excitability contained 140 mM potassium gluconate, 4 mM NaCl, 2 mM MgCl2, 1.1 mM EGTA, 5 mM HEPES, 2 mM Na2ATP, 5 mM sodium creatine phosphate, and 0.6 mM Na3GTP (pH 7.3), with KOH. When we measured the synaptic inhibitory or excitatory release the internal solution contained (in mM): CsCl 130; NaCl 4; MgCl2 2; EGTA 1.1; HEPES 5; Na2ATP 2; Na+-creatine-phosphate 5; Na3GTP 0.6, and spermine 0.1. The liquid junction potential was −3 mV. For cell-attached recordings the internal solution consisted in ACSF.
For the Okadaic acid (OA) and the CaMKII inhibitor KN93 experiments, respectively 100 nM of OA or 10 μM of KN93 were added in the internal solution. For the PP2A inhibitor LB100 experiments, LB100 (0.1 μM) was applied in the bath. Miniature excitatory postsynaptic currents (mEPSCs) were recorded in voltage-clamp mode at −60 mV in presence of bicuculine (10 μM) and TTX (1 μM). Miniature inhibitory postsynaptic currents (mIPSCs) were recorded (−60 mV) in presence of NBQX (20 μM) and TTX (1 μM). EPSCs and IPSCs were evoked through an ACSF filled monopolar glass electrode placed 200 μm from the recording site in the stria medullaris. AMPA:NMDA ratios of evoked-EPSC were obtained by AMPA-EPSC −60 mV/NMDA-EPSCs at +40 mV. Rectification Index (RI) was computed by […]-60/AMPA-EPSC+40. For the experiments in which high-frequency stimulation trains were used to determine presynaptic release probability, QX314 (5 mM) was included in the internal solution to prevent the generation of sodium spikes. Current-clamp experiments, were performed by a series of current steps (negative to positive) injected to induce action potentials (5-10 pA injection current per step, 800 ms).

[2] = system: GIRK channels; experiment: GTPγS-induced Ba2+-sensitive outward current (I-GTPγS) in LHb neurons of brain slices; format: cell-based, mice; details: LB100 in the bath; for Ba2+ sensitive I-GTPγS current: GTPγS 100 μM internal
Protocol: as §1
Cell-attached recordings in ACSF were performed in GΩ seal with a Vc=0 and Hc=0. Whole-cell voltage clamp recordings were achieved to measure GABAB-GIR currents in presence of Bicuculine (10 μM), NBQX (20 μM) and AP5 (50 μM). […] GABAB-GIRK currents were confirmed by antagonism with either 10 μM of CGP54626, a specific GABAB antagonist or 1 mM Ba^2, a selective inhibitor of inward rectifiers. For the GTPγS experiment, 100 μM of GTPγS was added to the internal solution in place of Na3GTP.

CN1CCN(C(=O)C2C(C(=O)O)[C@H]3CC[C@@H]2O3)CC1 (stereo partly drawn) [LB100]
FsE-induced hyperexcitability of LHb neurons (input-output curve, CTRL vs FsE) [1]: completely abolished
FsE-induced hyperexcitability of LHb neurons (input-output curve, CTRL vs FsE) ([1]; listed as LB-100): comparable to control conditions
Ba2+ sensitive I-GTPγS in FsE animals vs CTRL [2]: restored
Ba2+ sensitive I-GTPγS current ([2]; CTRL mice): 94.27±13.29 pA
Ba2+ sensitive I-GTPγS current ([2]; FsE mice): 110.6±20.79 pA
Ba2+ sensitive I-GTPγS in FsE animals vs CTRL ([2]; listed as LB-100): comparable to the control group
